Data as given in ChEMBL document CHEMBL1140679, “The identification of potent, selective, and bioavailable cathepsin S inhibitors” (Bioorg Med Chem Lett, 2007).

What was measured:
Cathepsin K [1] = target: T1, Cathepsin K (Homo sapiens, UniProt P43235); test: Inhibition of human cathepsin K
T1 sequence (P43235 whole entry): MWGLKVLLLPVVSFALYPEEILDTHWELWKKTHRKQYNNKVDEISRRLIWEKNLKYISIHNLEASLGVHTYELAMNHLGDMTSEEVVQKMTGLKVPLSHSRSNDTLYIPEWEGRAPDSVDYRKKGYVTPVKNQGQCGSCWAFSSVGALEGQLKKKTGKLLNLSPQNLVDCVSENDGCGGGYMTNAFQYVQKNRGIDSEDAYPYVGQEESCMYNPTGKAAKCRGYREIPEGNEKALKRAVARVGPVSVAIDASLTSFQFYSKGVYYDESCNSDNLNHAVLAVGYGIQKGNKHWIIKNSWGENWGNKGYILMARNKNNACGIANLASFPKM

Cathepsin S [2] = target: Cathepsin S (Rattus norvegicus, UniProt Q02765); test: Inhibition of rat spleen cathepsin S; type: tissue-based
Cathepsin S (Rattus norvegicus, UniProt Q02765), sequence (Q02765 whole entry): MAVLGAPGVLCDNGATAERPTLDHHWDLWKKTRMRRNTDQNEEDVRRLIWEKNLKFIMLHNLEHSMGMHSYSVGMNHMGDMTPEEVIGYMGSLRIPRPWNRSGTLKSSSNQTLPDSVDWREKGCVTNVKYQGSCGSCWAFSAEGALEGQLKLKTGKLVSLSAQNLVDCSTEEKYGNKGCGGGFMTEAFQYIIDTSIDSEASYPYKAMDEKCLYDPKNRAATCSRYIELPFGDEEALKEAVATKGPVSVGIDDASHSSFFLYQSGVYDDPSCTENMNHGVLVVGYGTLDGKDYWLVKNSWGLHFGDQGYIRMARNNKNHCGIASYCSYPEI

Cathepsin B [3] = target: Cathepsin B (Mus musculus, UniProt P10605); test: Inhibition of mouse recombinant cathepsin B
Cathepsin B (Mus musculus, UniProt P10605), sequence (P10605 whole entry): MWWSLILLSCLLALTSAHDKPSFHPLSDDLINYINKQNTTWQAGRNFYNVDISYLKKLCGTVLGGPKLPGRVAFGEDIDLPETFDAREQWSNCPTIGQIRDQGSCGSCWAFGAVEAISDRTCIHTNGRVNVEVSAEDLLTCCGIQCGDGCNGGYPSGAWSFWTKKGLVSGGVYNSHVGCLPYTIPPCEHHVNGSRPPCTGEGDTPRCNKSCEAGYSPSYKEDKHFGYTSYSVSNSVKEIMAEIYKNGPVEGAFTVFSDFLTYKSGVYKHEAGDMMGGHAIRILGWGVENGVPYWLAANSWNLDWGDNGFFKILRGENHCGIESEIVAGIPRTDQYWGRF

Cathepsin K [4] = target: T2, Cathepsin K (Mus musculus, UniProt P55097); test: Inhibition of mouse recombinant cathepsin K
T2 sequence (P55097 whole entry): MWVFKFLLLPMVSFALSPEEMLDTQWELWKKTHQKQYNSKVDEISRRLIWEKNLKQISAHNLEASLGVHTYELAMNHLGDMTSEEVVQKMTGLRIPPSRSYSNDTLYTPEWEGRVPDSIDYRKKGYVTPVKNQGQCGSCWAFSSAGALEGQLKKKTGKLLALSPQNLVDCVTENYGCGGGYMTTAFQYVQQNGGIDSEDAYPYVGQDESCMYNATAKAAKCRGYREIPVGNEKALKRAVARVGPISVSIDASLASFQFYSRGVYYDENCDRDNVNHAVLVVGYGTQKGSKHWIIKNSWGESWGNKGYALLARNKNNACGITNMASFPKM

[5] = Inhibition of antigen presentation in mouse B cells; type: functional, cell-based
Cathepsin B [6] = target: Cathepsin B (Homo sapiens, UniProt P07858); test: Inhibition of human cathepsin B
Cathepsin B [7] = target: Cathepsin B (Rattus norvegicus, UniProt P00787); test: Inhibition of rat liver lysosomal cathepsin B
Cathepsin B (Rattus norvegicus, UniProt P00787), sequence (P00787 whole entry): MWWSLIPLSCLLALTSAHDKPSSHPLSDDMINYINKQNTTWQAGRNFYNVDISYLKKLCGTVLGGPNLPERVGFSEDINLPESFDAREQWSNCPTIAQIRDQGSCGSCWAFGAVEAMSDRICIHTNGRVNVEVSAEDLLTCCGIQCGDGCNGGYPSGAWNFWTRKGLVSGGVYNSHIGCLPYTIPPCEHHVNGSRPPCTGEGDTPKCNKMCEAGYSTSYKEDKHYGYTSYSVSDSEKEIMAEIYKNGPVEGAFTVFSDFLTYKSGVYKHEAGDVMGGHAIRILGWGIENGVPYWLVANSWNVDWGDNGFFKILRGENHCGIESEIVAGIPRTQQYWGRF

Cathepsin S [8] = target: Cathepsin S (Homo sapiens, UniProt P25774); test: Inhibition of human cathepsin S
Cathepsin S (Homo sapiens, UniProt P25774), sequence (P25774 whole entry): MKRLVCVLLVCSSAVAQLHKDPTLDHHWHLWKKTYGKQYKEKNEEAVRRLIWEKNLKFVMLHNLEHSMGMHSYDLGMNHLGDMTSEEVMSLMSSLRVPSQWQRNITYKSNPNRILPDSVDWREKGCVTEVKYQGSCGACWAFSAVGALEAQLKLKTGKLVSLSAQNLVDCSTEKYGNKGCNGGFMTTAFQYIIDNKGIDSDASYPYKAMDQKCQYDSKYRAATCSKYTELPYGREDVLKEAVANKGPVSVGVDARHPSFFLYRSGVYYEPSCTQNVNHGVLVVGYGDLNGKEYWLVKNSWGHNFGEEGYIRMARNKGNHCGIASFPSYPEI

Cathepsin S [9] = target: Cathepsin S (Mus musculus, UniProt O70370); test: Inhibition of mouse recombinant cathepsin S
Cathepsin S (Mus musculus, UniProt O70370), sequence (O70370 whole entry): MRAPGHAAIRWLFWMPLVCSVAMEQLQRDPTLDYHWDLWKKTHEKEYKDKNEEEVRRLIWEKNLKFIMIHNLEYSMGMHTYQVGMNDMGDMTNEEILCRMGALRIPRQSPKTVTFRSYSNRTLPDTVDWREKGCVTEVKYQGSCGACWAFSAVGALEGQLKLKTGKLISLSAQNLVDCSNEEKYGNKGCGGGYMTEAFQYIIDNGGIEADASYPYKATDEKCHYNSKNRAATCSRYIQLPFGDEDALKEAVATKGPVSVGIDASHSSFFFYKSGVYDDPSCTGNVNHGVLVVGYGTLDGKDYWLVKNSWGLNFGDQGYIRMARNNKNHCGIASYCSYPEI

Procathepsin L [10] = target: T3, Procathepsin L (Rattus norvegicus, UniProt P07154); test: Inhibition of rat liver lysosomal cathepsin L
T3 sequence (P07154 whole entry): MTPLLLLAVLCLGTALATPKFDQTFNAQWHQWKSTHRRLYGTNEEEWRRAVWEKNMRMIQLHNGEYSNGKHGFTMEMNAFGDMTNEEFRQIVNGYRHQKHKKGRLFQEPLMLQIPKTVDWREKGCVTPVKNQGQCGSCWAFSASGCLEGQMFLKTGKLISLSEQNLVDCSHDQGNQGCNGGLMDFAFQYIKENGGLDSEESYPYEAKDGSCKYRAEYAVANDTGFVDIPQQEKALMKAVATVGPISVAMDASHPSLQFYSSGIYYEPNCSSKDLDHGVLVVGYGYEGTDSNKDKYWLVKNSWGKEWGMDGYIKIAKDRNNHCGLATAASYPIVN

Procathepsin L [11] = target: Procathepsin L (Homo sapiens, UniProt P07711); test: Inhibition of human cathepsin L
Procathepsin L (Homo sapiens, UniProt P07711), sequence (P07711 whole entry): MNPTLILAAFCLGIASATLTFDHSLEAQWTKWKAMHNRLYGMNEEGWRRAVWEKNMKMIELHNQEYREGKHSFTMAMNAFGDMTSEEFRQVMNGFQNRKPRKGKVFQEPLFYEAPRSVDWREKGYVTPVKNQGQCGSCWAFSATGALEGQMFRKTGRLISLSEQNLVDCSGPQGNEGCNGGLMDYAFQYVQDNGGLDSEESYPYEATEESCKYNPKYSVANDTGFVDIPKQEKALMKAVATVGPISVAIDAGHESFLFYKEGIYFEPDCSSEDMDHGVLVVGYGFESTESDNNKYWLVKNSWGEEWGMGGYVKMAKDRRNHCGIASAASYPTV

Procathepsin L [12] = target: T4, Procathepsin L (Mus musculus, UniProt P06797); test: Inhibition of mouse recombinant cathepsin L
T4 sequence (P06797 whole entry): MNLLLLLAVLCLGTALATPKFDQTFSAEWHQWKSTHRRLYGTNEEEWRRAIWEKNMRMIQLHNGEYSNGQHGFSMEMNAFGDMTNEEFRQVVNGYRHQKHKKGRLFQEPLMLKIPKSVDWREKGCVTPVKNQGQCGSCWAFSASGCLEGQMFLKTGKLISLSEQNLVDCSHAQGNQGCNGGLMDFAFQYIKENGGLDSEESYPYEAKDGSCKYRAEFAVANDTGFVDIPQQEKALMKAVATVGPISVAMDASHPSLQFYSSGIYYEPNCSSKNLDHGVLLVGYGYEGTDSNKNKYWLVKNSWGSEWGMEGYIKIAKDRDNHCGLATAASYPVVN

[13] = Cmax in po dosed Sprague-Dawley rat administered in 1:1 inwitor/tween 80 solution; type: ADME, organism-based; design: route oral; settings: in vivo
Rattus norvegicus = test: Half life in po dosed Sprague-Dawley rat administered in 1:1 inwitor/tween 80 solution; type: ADME, organism-based; settings: in vivo
[14] = Bioavailability in po dosed Sprague-Dawley rat administered in 1:1 inwitor/tween 80 solution; type: ADME, organism-based; settings: in vivo

IC50 (Cathepsin K [1])	IC50 (Cathepsin S [2])	IC50 (Cathepsin B [3])	IC50 (Cathepsin K [4])	IC50 [5]	IC50 (Cathepsin B [6])	IC50 (Cathepsin B [7])	IC50 (Cathepsin S [8])	IC50 (Cathepsin S [9])	IC50 (Procathepsin L [10])	IC50 (Procathepsin L [11])	IC50 (Procathepsin L [12])	Cmax [13]	t1/2 (Rattus norvegicus)	bioavailability [14]	Compound
6.2 nM	1.7 nM	1280 nM	388 nM	1.2 nM	4500 nM	735 nM	1.2 nM	0.5 nM	4.1 nM	–	–	–	–	–	CC(C)C[C@@H](NC(=O)N1CCOCC1)C(=O)N[C@@H](/C=C/S(=O)(=O)c1ccccc1)CCc1ccccc1
5.3 nM	–	–	–	–	170 nM	–	10 nM	–	–	> 10000 nM	–	–	–	–	CS(=O)(=O)C[C@H](N[C@@H](c1ccc(-c2ccc(F)cc2)cc1)C(F)(F)F)C(=O)NC1(C#N)CC1
0.3 nM	–	–	–	–	7740 nM	–	265 nM	–	–	456 nM	–	–	–	–	CC(C)C[C@H](N[C@@H](c1ccc(-c2ccc(S(C)(=O)=O)cc2)cc1)C(F)(F)F)C(=O)NC1(C#N)CC1
141 nM	–	–	–	–	1980 nM	–	2.5 nM	–	–	1040 nM	–	–	–	–	CS(=O)(=O)C[C@H](N[C@@H](c1ccccc1)C(F)(F)F)C(=O)NC1(C#N)CC1
5 nM	–	–	–	–	417 nM	–	80 nM	–	–	456 nM	–	–	–	–	CSC[C@H](N[C@@H](c1ccc(Br)cc1)C(F)(F)F)C(=O)NC1(C#N)CC1
555 nM	–	–	–	–	287 nM	–	0.6 nM	–	–	68 nM	–	–	–	–	N#CC1(NC(=O)[C@H](CS(=O)(=O)CC2CC2)N[C@@H](c2ccccc2)C(F)(F)F)CC1
314 nM	–	–	–	–	3850 nM	–	6.4 nM	–	–	911 nM	–	–	–	–	CS(=O)(=O)C[C@H](N[C@@H](c1cccc(F)c1)C(F)(F)F)C(=O)NC1(C#N)CC1
290 nM	66 nM	1750 nM	1320 nM	–	3450 nM	1810 nM	0.3 nM	0.2 nM	72 nM	15 nM	39 nM	–	–	–	N#CC1(NC(=O)[C@H](CS(=O)(=O)c2ccc(Br)cc2)N[C@@H](c2ccccc2)C(F)(F)F)CC1
825 nM	–	–	–	–	2970 nM	–	1.3 nM	–	–	114 nM	–	–	–	–	N#CC1(NC(=O)[C@H](CS(=O)(=O)c2nc3ccccc3s2)N[C@@H](c2ccccc2)C(F)(F)F)CC1
> 10000 nM	–	–	–	–	4040 nM	–	1.8 nM	–	–	> 10000 nM	–	–	–	–	N#CC1(NC(=O)[C@H](CS(=O)(=O)Cc2ccccc2-c2ccccc2)N[C@@H](c2ccc(F)cc2)C(F)(F)F)CC1
305 nM	–	–	–	–	7280 nM	–	0.4 nM	–	–	22 nM	–	–	–	–	N#CC1(NC(=O)[C@H](CS(=O)(=O)c2ccc(F)cc2)N[C@@H](c2ccc(F)cc2)C(F)(F)F)CC1
691 nM	–	–	–	–	4810 nM	–	0.2 nM	–	–	41 nM	–	250 nM	1.2 h	35%	N#CC1(NC(=O)[C@H](CS(=O)(=O)c2ccc(Cl)c(Cl)c2)N[C@@H](c2ccc(F)cc2)C(F)(F)F)CC1
